Experimental data from patent US20210161999A1, “COMPOSITIONS AND METHODS RELATED TO OVERCOMING INNATE IMMUNE BARRIERS TO CANCER IMMUNOTHERAPY” (Health Research, Inc., priority 2018, published 2021).
Entries after “also recorded” stand apart in the source; their conditions may differ.

Key:
[1] = system: T cells; assay: Surface expression of PD-1, LAG-3 and CTLA-4 on stimulated T cells after coculture (flow cytometry); format: cell-based, human; conditions: coculture with Cp40-ASC and PMN, compared to unstimulated (n=6)
Method: FIG. 6. Combination of ascites and PMN prevents T cell activation and is independent of exhaustion. T cells (CD3^+) and PMN were used in autologous coculture at 1:1. PMN and/or ascites supernatants (ASC; 50% final well volume) were added to anti-CD3/CD28-stimulated T cells. At 24, 48, and 72 h, T cells were analyzed for surface and intracellular expression of markers for activation, co-stimulation, and function. Surface expression of A) CD62L, B) CD69, C) CD4OL, and D) CD107a were evaluated at baseline (on y-axis) and at 24, 48, and 72 h (n=2). E-M) PD-1, LAG-3, and CTLA-4 expression was evaluated (n=4). CD8^+ T cells at 72 h are represented here in representative MFI overlays (E-G) and quantification (H-J); unstimulated T cells in media, grey solid; anti-CD3/CD28-stimulated, black dashed line; anti-CD3/CD28-stimulated+PMN, purple solid line; anti-CD3/CD28-stimulated+ASC, orange solid line; anti-CD3/CD28-stimulated+ASC+PMN, green solid line. […] N) At 72 h, intracellular expression of IFN-gamma was reduced as compared to stimulated alone (n=3). O-P) Combination of ASC and PMN reduced anti-CD3/CD28-stimulated T cell IL-2 levels (pg/mL) in supernatants to ND after 24 (O) and 72 h (P) of coculture (n=4). Background levels of PMN or ASC were ND; ND=non-detectable. Q) CTL activity of NY-ESO-1157-165-specific CD8^+ T cells directed at SK29 target cells pulsed with the NY-ESO-1 peptide was unaffected by coculture with ASC and/or PMN (n=3). Symbols represent individual samples (n) and bars represent SEM. Statistical comparisons were by Mann-Whitney (*, p<0.05; **, p<0.01; ***, p<0.001; ns, not significant). Results were consistent between CD4^+ and CD8^+ T cells.
Data were analyzed using FCS Express 6.
Fc receptors were blocked to prevent non-specific antibody binding prior to staining (15 min, 4° C.; anti-mouse CD16/CD32, clone 2.4G2; BD Biosciences). For phenotyping of PMN, antibodies targeted to human CD45 (clone REA747), CD15 (VIMC6) (Miltenyi Biotec, Inc.), CD63 (H5C6), CD66b (G10F5), and CD35 (Ell) (Biolegend) were used. […]

[2] = system: PMN suppressor phenotype (suppression of anti-CD3/CD28-stimulated T cell proliferation); assay: Coculture of PMN with ascites supernatants and anti-CD3/CD28-stimulated T cells; T cell proliferation by [3H] thymidine incorporation; format: cell-based, human
Method: Freshly isolated T cells (1e5) were stimulated with anti-CD3/CD28 Dynabeads (2.5 μl; Thermo Fisher Scientific) and cocultured with autologous PMN (1:1) and ascites supernatants (50% final well volume) in an incubator at 37° C., 5% CO2. After 72 h, [^3H] thymidine (1 μCi per well) was added and allowed to incorporate for 16-18 h. Cells were harvested onto a Filtermat and counted on a Beta counter. Results are expressed as net cpm [calculated by subtracting the average cpm of unstimulated T cells from the average cpm of stimulated T cells].
Where indicated, T cells, PMN, and ascites supernatants underwent various pretreatments. Where indicated, T cells were pretreated for lh with neutralizing antibody against ICAM-I (1-10 μg), IgG1 isotype (1-10 μg), or media (RPMI 1640, 5-10% heat-inactivated FBS, HEPES, sodium pyruvate, non-essential amino acids, and penicillin-streptomycin).
Where indicated, PMN were pretreated for lh with neutralizing antibody against CD11b (1-10 μg), TGF-beta receptor 1 (1-10 μg) or IgG1 isotype (1-10 μg); thapsigargin (THG, 0.5-2 μM), diphenyleneiodonium (DPI, 1-25 μM), N-Formylmethionine-leucyl-phenylalanine (fMLF, 1-100 nM), brefeldin-A (1-10 μg/mL), ER export inhibitor 1 (Exol, 20-75 μM), CI-amidine (10-20 μM), SNARE decoys: TAT-SNAP23 (0.6-0.9 μg/mL), TAT-SYN4 (0.6-0.9 μg/mL), TAT-GST (0.6-0.9 μg/mL) (produced as described in the laboratory of Dr. Kenneth McLeish), puromycin and actinomycin-D (1-5 μg/mL), or with media.
Where indicated, ascites supernatants were pretreated with heat (56° C., lh) to denature heat-labile constituents or proteinase-K (100 μM, 37° C., 12 h) to degrade proteins. Two formulations of compstatin, a peptide C3 inhibitor, were used: CS (250 μM, 30° C., 2 h, Tocris) and Cp40 (1.25-20 μM, 30° C., 2 h), as well as a scramble peptide. In separate studies, ascites supernatants were ultra-centrifuged (100,000g, 4° C., 1.5 h) to separate the membrane-rich (MR-ASC) and membrane-depleted (MD-ASC) fractions. In others, ascites supernatants were pretreated for lh with neutralizing antibody against C5 (0.5-1.0 μg, A217; Quidel, San Diego, Calif.) or C7 (0.5-1.0 μg, A221; Quidel) or IgG1 isotype (0.5-1.0 μg), or with OmCI (0.6-1.2 μM), a peptide C5 inhibitor derived from the saliva of Ornithodoros moubata (35, 36).

In the case of `CC[C@H](C)[C@H](NC(=O)[C@H](N)Cc1ccc(O)cc1)C(=O)N[C@H]1CSSC[C@@H](C(=O)N(C)[C@H](C(N)=O)[C@@H](C)CC)NC(=O)[C@H](CCCNC(=N)N)NC(=O)[C@H](Cc2c[nH]cn2)NC(=O)[C@H](C)NC(=O)CN(C)C(=O)[C@H](Cc2c[nH]c3ccccc23)NC(=O)[C@H](CC(=O)O)NC(=O)[C@H](CCC(N)=O)NC(=O)[C@H](Cc2cn(C)c3ccccc23)NC(=O)[C@H](C(C)C)NC1=O` [Cp40], the “CTLA-4 expression on stimulated T cells” value [1] is reported as “showed an upwards trend; also recorded: upregulated relative to unstimulated T cells”, the “LAG-3 expression on stimulated T cells” value [1] is reported as “unaffected; also recorded: did not result in upregulation” and the “PD-1 expression on stimulated T cells” value [1] is reported as “unaffected; also recorded: did not result in upregulation”. The “effect on PMN suppressor phenotype” value ([2]; added to ASC 2 h prior to coculture with PMN and T cells, CS 250 μM, Cp40 20 μM, scramble peptide 20 μM) was “completely abrogated the PMN suppressor phenotype; also recorded: fully abrogated the PMN suppressor phenotype; also recorded: completely abrogated the neutrophil suppressor phenotype”, the “Cp40 concentration sufficient to abrogate the PMN suppressor phenotype” value ([2]; concentration-titration study, FIG. 15B) was 2.5-20 ∥M and the “Cp40 concentration sufficient to fully abrogate the PMN suppressor phenotype” value ([2]; titration study, ASC pretreated (n=3)) was 5 µM.
